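Five compound concentrations were applied to cells in 96-well plates for 48 hours; endpoints were derived by simple linear interpolation of the resulting dose-response curve. GI50 is the concentration that inhibits growth by half. TGI: concentration producing complete growth inhibition.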
Tests used:
Test in all cases: NCI anticancer screen, dose series, 48 h
SK-MEL-2 melanoma = system: SK-MEL-2 melanoma
EKVX NSCLC = system: EKVX NSCLC
M14 melanoma = system: M14 melanoma
HL-60(TB) leukemia = system: HL-60(TB) leukemia
SK-OV-3 ovarian = system: SK-OV-3 ovarian
UACC-62 melanoma = system: UACC-62 melanoma
HOP-62 NSCLC = system: HOP-62 NSCLC
UACC-257 melanoma = system: UACC-257 melanoma
HOP-92 NSCLC = system: HOP-92 NSCLC
RXF 393 renal = system: RXF 393 renal

SMILES | TGI (SK-MEL-2 melanoma) | TGI (EKVX NSCLC) | TGI (M14 melanoma) | TGI (HL-60(TB) leukemia) | TGI (SK-OV-3 ovarian) | TGI (UACC-62 melanoma) | TGI (HOP-62 NSCLC) | TGI (UACC-257 melanoma) | TGI (HOP-92 NSCLC) | TGI (RXF 393 renal) | GI50 (SK-MEL-2 melanoma) | GI50 (HOP-92 NSCLC) | GI50 (EKVX NSCLC) | GI50 (M14 melanoma) | GI50 (HL-60(TB) leukemia) | GI50 (RXF 393 renal) | GI50 (UACC-62 melanoma) | GI50 (HOP-62 NSCLC) | GI50 (UACC-257 melanoma) | GI50 (SK-OV-3 ovarian)
O=C1OC(c2ccccc2Br)=N/C1=C/c1ccccc1 | 41.7 µM | > 100 µM | 41.1 µM | > 100 µM | > 100 µM | > 100 µM | 49.4 µM | > 100 µM |  |  |  |  |  |  |  |  |  |  |  | 
O=C1CCC2COc3ccc(O)c1c32 (stereo not drawn) |  | > 100 µM | > 100 µM | > 100 µM | > 100 µM | > 100 µM |  | > 100 µM | > 100 µM | > 100 µM |  |  |  |  |  |  |  |  |  | 
O=c1oc2ccccc2n1P(=O)(Oc1ccc(Cl)cc1)n1c(=O)oc2ccccc21 | > 100 µM | > 100 µM |  | > 100 µM | > 100 µM | > 100 µM | > 100 µM | > 100 µM | > 100 µM | > 100 µM |  |  |  |  |  |  |  |  |  | 
COc1nc(NC2OC(CO)C(O)C(O)C2O)c(N)c(=O)[nH]1 (stereo not drawn) | > 100 µM | > 100 µM |  | > 100 µM | > 100 µM | > 100 µM | > 100 µM | > 100 µM | > 100 µM | > 100 µM |  |  |  |  |  |  |  |  |  | 
Nc1ncnc2c1ccn2-c1cccc(NC(=O)c2ccc(N3CCOCC3)c(C(F)(F)F)c2)c1 | 5.1 µM | 22.1 µM | 10.6 µM | 8.07 µM |  | 5.78 µM | 15.5 µM | 22.1 µM | 5.82 µM | 5.1 µM | 1.83 µM | 1.6 µM | 3.2 µM | 3.33 µM | 3.17 µM | 2.05 µM | 1.99 µM | 3.62 µM | 4.99 µM | 
COC(=O)Cc1c(C2C(CC(=O)OC)c3ccccc3N2C2OC(CO)C(O)C(O)C2O)[nH]c2ccccc12 (stereo not drawn) | > 100 µM | > 100 µM | > 100 µM |  | > 100 µM | > 100 µM | > 100 µM | > 100 µM | > 100 µM |  |  |  |  |  |  |  |  |  |  | 
CC(C)(C)CI | 37.6 µM | > 100 µM | 71.3 µM | 50.4 µM | > 100 µM | > 100 µM |  | 51.6 µM | 61.4 µM | 33.7 µM |  |  |  |  |  |  |  |  |  | 
CC1OC(CO)(n2cnc3c(N)ncnc32)C(O)C1O (stereo not drawn) | > 100 µM | > 100 µM |  | > 100 µM | > 100 µM | > 100 µM | > 100 µM | > 100 µM | > 100 µM | > 100 µM |  |  |  |  |  |  |  |  |  | 
CCCCCCCCCCCCCCCCCCOc1ccccc1COP(=O)(O)OOCC[N+](C)(C)C | 9.65 µM | 10.3 µM |  | 2.19 µM | 10.6 µM | 2.82 µM | 15.4 µM | 6.45 µM |  | 1.96 µM | 1.71 µM |  | 1.77 µM |  | 0.846 µM | 0.911 µM | 0.901 µM | 2.19 µM | 1.54 µM | 2.38 µM
C#CCNC(=O)CC[C@@H](C)[C@H]1CC[C@H]2[C@@H]3CC[C@@H]4CC(=O)CC[C@]4(C)[C@H]3CC[C@]12C | 35.8 µM | 57.9 µM | 37.2 µM | 18 µM | > 100 µM | 28.6 µM | 40.4 µM | 42.3 µM | 10.3 µM | 31.7 µM | 16.9 µM | 2.54 µM | 20.1 µM | 14.6 µM | 3.47 µM | 14 µM | 9.02 µM | 16.6 µM | 13.2 µM | 28.8 µM
NC(CSCSCC(N)C(=O)O)C(=O)O (stereo not drawn) | > 225 µM | > 225 µM |  | > 225 µM | > 225 µM | > 225 µM | > 225 µM | > 225 µM | > 225 µM | > 225 µM |  |  |  |  |  |  |  |  |  | 

— PubChem BioAssay (NCI)
